Test results published in patent US4701448A, “Metal salt of organic phosphate and an antihyperlipemic agent containing the same” (Asahi Denka Kogyo Kabushiki Kaisha, priority 1985, dated 1987).
Structures can show the parent of a compound that is named as a salt.

tested on: serum cholesterol; assay: Serum cholesterol lowering activity, oral, rabbit, 5 successive days; type: in vivo; conditions: two times a day, 5 days, 1.5 mg/kg/day
Experimental: (1) Serum cholesterol lowering activity the metal salt of organic phosphate according to the present invention was orally administered to a rabbit (body weight of about 3 Kg) two times a day (at 9:00 a.m. and 4:00 p.m.) for 5 successive days. After 5 days, blood was sampled and the total cholesterol value in serum was measured in a conventional manner.

SMILES | Total Serum cholesterol lowering rate
CCC(C)C(=O)OC1CCC=C2C=CC(C)C(CCC(CC(O)CC(=O)O)OP(=O)(O)O)C21 (centres unmarked) [CB3A-1.5Ca salt, Sesquicalcium salt of CB3A] | 23.2%
CCC(C)C(=O)OC1CC(C)C=C2C=CC(C)C(CCC(CC(O)CC(=O)O)OP(=O)(O)O)C21 (centres unmarked) [CK3A-1.5Ba salt, Sesquibarium salt of CK3A] | 21.1%
CCC(C)C(=O)OC1CCC=C2C=CC(C)C(CCC(CC(O)CC(=O)O)OP(=O)(O)O)C21 (centres unmarked) [CB3A-1.5Ba salt, Sesquibarium salt of CB3A] | 21.3%
CCC(C)C(=O)OC1CCC=C2C=CC(C)C(CCC(CC(O)CC(=O)O)OP(=O)(O)O)C21 (centres unmarked) [CB3A-2K salt, Dipotassium salt of CB3A] | 19.1%
CCC(C)C(=O)OC1CCC=C2C=CC(C)C(CCC(CC(O)CC(=O)O)OP(=O)(O)O)C21 (centres unmarked) [CB3A-1.5Mg salt] | 21.1%
CCC(C)C(=O)OC1CCC=C2C=CC(C)C(CCC(CC(O)CC(=O)OC)OP(=O)(O)O)C21 (centres unmarked) [CB3A methyl ester-Ca salt, Calcium salt of CB3A methyl ester] | 23.0%
CCC(C)C(=O)OC1CC(C)C=C2C=CC(C)C(CCC(CC(O)CC(=O)OC)OP(=O)(O)O)C21 (centres unmarked) [CK3A methyl ester-Ca salt, Calcium salt of CK3A methyl ester] | 24.9%
CCC(C)C(=O)OC1CC(C)C=C2C=CC(C)C(CCC(CC(O)CC(=O)O)OP(=O)(O)O)C21 (centres unmarked) [CK3A-1.5Ca salt, Sesquicalcium salt of CK3A] | 24.5%
CCC(C)C(=O)OC1CCC=C2C=CC(C)C(CCC(CC(O)CC(=O)O)OP(=O)(O)O)C21 (centres unmarked) [CB3A-3Na salt, Trisodium salt of CB3A] | 18.5%
CCC(C)C(=O)OC1CC(C)C=C2C=CC(C)C(CCC(CC(O)CC(=O)OC)OP(=O)(O)O)C21 (centres unmarked) [CK3A methyl ester-2K salt, Dipotassium salt of CK3A methyl ester] | 18.7%
CCC(C)C(=O)OC1CC(C)C=C2C=CC(C)C(CCC(CC(O)CC(=O)O)OP(=O)(O)O)C21 (centres unmarked) [CK3A-3Na salt, Trisodium salt of CK3A] | 17.1%

same assay, conditions: two times a day, 5 days, 6 mg/kg/day

SMILES | Total Serum cholesterol lowering rate
CCC(C)C(=O)OC1CCC=C2C=CC(C)C(CCC(CC(O)CC(=O)O)OP(=O)(O)O)C21 (centres unmarked) [CB3A-1.5Ca salt, Sesquicalcium salt of CB3A] | 40.2%
CCC(C)C(=O)OC1CC(C)C=C2C=CC(C)C(CCC(CC(O)CC(=O)O)OP(=O)(O)O)C21 (centres unmarked) [CK3A-1.5Ba salt, Sesquibarium salt of CK3A] | 36.6%
CCC(C)C(=O)OC1CCC=C2C=CC(C)C(CCC(CC(O)CC(=O)O)OP(=O)(O)O)C21 (centres unmarked) [CB3A-1.5Ba salt, Sesquibarium salt of CB3A] | 36.6%
CCC(C)C(=O)OC1CCC=C2C=CC(C)C(CCC(CC(O)CC(=O)O)OP(=O)(O)O)C21 (centres unmarked) [CB3A-2K salt, Dipotassium salt of CB3A] | 34.2%
CCC(C)C(=O)OC1CCC=C2C=CC(C)C(CCC(CC(O)CC(=O)O)OP(=O)(O)O)C21 (centres unmarked) [CB3A-1.5Mg salt] | 36.3%
CCC(C)C(=O)OC1CCC=C2C=CC(C)C(CCC(CC(O)CC(=O)OC)OP(=O)(O)O)C21 (centres unmarked) [CB3A methyl ester-Ca salt, Calcium salt of CB3A methyl ester] | 40.6%
CCC(C)C(=O)OC1CC(C)C=C2C=CC(C)C(CCC(CC(O)CC(=O)OC)OP(=O)(O)O)C21 (centres unmarked) [CK3A methyl ester-Ca salt, Calcium salt of CK3A methyl ester] | 39.2%
CCC(C)C(=O)OC1CC(C)C=C2C=CC(C)C(CCC(CC(O)CC(=O)O)OP(=O)(O)O)C21 (centres unmarked) [CK3A-1.5Ca salt, Sesquicalcium salt of CK3A] | 39.9%
CCC(C)C(=O)OC1CCC=C2C=CC(C)C(CCC(CC(O)CC(=O)O)OP(=O)(O)O)C21 (centres unmarked) [CB3A-3Na salt, Trisodium salt of CB3A] | 34.3%
CCC(C)C(=O)OC1CC(C)C=C2C=CC(C)C(CCC(CC(O)CC(=O)OC)OP(=O)(O)O)C21 (centres unmarked) [CK3A methyl ester-2K salt, Dipotassium salt of CK3A methyl ester] | 34.7%
CCC(C)C(=O)OC1CC(C)C=C2C=CC(C)C(CCC(CC(O)CC(=O)O)OP(=O)(O)O)C21 (centres unmarked) [CK3A-3Na salt, Trisodium salt of CK3A] | 30.0%

tested on: mouse; assay: Acute toxicity, mouse; type: in vivo; conditions: intraperitoneal injection
From the text: (§1) The acute toxicity of the metal salt of CB3A and of CK3A was examined by orally or peritoneally administrating an aqueous solution or dispersion thereof the results are shown in Table 2.
(§2) a . . . per os (oral administration)
(§3) b . . . intraperitoneal injection

SMILES | LD50
CCC(C)C(=O)OC1CCC=C2C=CC(C)C(CCC(CC(O)CC(=O)O)OP(=O)(O)O)C21 (centres unmarked) [CB3A-1.5Ca salt, Sesquicalcium salt of CB3A] | > 500 mg/kg
CCC(C)C(=O)OC1CC(C)C=C2C=CC(C)C(CCC(CC(O)CC(=O)O)OP(=O)(O)O)C21 (centres unmarked) [CK3A-1.5Ca salt, Sesquicalcium salt of CK3A] | > 500 mg/kg
CCC(C)C(=O)OC1CCC=C2C=CC(C)C(CCC(CC(O)CC(=O)O)OP(=O)(O)O)C21 (centres unmarked) [CB3A-3Na salt, Trisodium salt of CB3A] | > 500 mg/kg
CCC(C)C(=O)OC1CC(C)C=C2C=CC(C)C(CCC(CC(O)CC(=O)O)OP(=O)(O)O)C21 (centres unmarked) [CK3A-3Na salt, Trisodium salt of CK3A] | > 500 mg/kg

same assay, conditions: per os (oral administration)

SMILES | LD50
CCC(C)C(=O)OC1CCC=C2C=CC(C)C(CCC(CC(O)CC(=O)O)OP(=O)(O)O)C21 (centres unmarked) [CB3A-1.5Ca salt, Sesquicalcium salt of CB3A] | > 2000 mg/kg
CCC(C)C(=O)OC1CC(C)C=C2C=CC(C)C(CCC(CC(O)CC(=O)O)OP(=O)(O)O)C21 (centres unmarked) [CK3A-1.5Ca salt, Sesquicalcium salt of CK3A] | > 2000 mg/kg
CCC(C)C(=O)OC1CCC=C2C=CC(C)C(CCC(CC(O)CC(=O)O)OP(=O)(O)O)C21 (centres unmarked) [CB3A-3Na salt, Trisodium salt of CB3A] | > 2000 mg/kg
CCC(C)C(=O)OC1CC(C)C=C2C=CC(C)C(CCC(CC(O)CC(=O)O)OP(=O)(O)O)C21 (centres unmarked) [CK3A-3Na salt, Trisodium salt of CK3A] | > 2000 mg/kg

tested on: rat; assay: Acute toxicity, rat; type: in vivo; conditions: intraperitoneal injection
From the text: as §1, §2, §3

SMILES | LD50
CCC(C)C(=O)OC1CCC=C2C=CC(C)C(CCC(CC(O)CC(=O)O)OP(=O)(O)O)C21 (centres unmarked) [CB3A-1.5Ca salt, Sesquicalcium salt of CB3A] | > 500 mg/kg
CCC(C)C(=O)OC1CC(C)C=C2C=CC(C)C(CCC(CC(O)CC(=O)O)OP(=O)(O)O)C21 (centres unmarked) [CK3A-1.5Ca salt, Sesquicalcium salt of CK3A] | > 500 mg/kg
CCC(C)C(=O)OC1CCC=C2C=CC(C)C(CCC(CC(O)CC(=O)O)OP(=O)(O)O)C21 (centres unmarked) [CB3A-3Na salt, Trisodium salt of CB3A] | > 500 mg/kg
CCC(C)C(=O)OC1CC(C)C=C2C=CC(C)C(CCC(CC(O)CC(=O)O)OP(=O)(O)O)C21 (centres unmarked) [CK3A-3Na salt, Trisodium salt of CK3A] | > 500 mg/kg

same assay, conditions: per os (oral administration)

SMILES | LD50
CCC(C)C(=O)OC1CCC=C2C=CC(C)C(CCC(CC(O)CC(=O)O)OP(=O)(O)O)C21 (centres unmarked) [CB3A-1.5Ca salt, Sesquicalcium salt of CB3A] | > 2000 mg/kg
CCC(C)C(=O)OC1CC(C)C=C2C=CC(C)C(CCC(CC(O)CC(=O)O)OP(=O)(O)O)C21 (centres unmarked) [CK3A-1.5Ca salt, Sesquicalcium salt of CK3A] | > 2000 mg/kg
CCC(C)C(=O)OC1CCC=C2C=CC(C)C(CCC(CC(O)CC(=O)O)OP(=O)(O)O)C21 (centres unmarked) [CB3A-3Na salt, Trisodium salt of CB3A] | > 2000 mg/kg
CCC(C)C(=O)OC1CC(C)C=C2C=CC(C)C(CCC(CC(O)CC(=O)O)OP(=O)(O)O)C21 (centres unmarked) [CK3A-3Na salt, Trisodium salt of CK3A] | > 2000 mg/kg

tested on: not listed separately; assay: Stability, 5 weeks at 45° C. and humidity of 80% (HPLC remaining rate); type: physicochemical; conditions: after 5 weeks, humidity of 80%, 50400 min
Experimental: One gram each of CB3A, CK3A and various metal salts thereof was placed in a beaker and the beaker was allowed to stand for 5 weeks in a constant temperature and humidity bath controlled at a temperature of 45° C. and a humidity of 80%. After 5 weeks, a remaining rate of the compound was analyzed quantitatively with a high performance liquid chromatography "Tri rotar" manufactured by Nippon Bunko K. K. (Japan).
A0 = initial amount of the compound prior to standing in the constan
temperature and humidity bath
A1 = final amount of the compound after 5 weeks

SMILES | Remaining rate
CCC(C)C(=O)OC1CCC=C2C=CC(C)C(CCC(CC(O)CC(=O)O)OP(=O)(O)O)C21 (centres unmarked) [CB3A-1.5Ca salt, Sesquicalcium salt of CB3A] | 97%
CCC(C)C(=O)OC1CC(C)C=C2C=CC(C)C(CCC(CC(O)CC(=O)O)OP(=O)(O)O)C21 (centres unmarked) [CK3A-1.5Ca salt, Sesquicalcium salt of CK3A] | 96%
CCC(C)C(=O)OC1CCC=C2C=CC(C)C(CCC(CC(O)CC(=O)O)OP(=O)(O)O)C21 (centres unmarked) [CB3A-3Na salt, Trisodium salt of CB3A] | 82%

same assay, conditions: solid, 80% humidity, after 5 weeks, humidity of 80%

remaining at 840 h | SMILES
83% | CCC(C)C(=O)OC1CC(C)C=C2C=CC(C)C(CCC(CC(O)CC(=O)OC)OP(=O)(O)O)C21 (centres unmarked) [CK3A methyl ester-2K salt, Dipotassium salt of CK3A methyl ester]

tested on: not listed separately; assay: Water solubility, hygroscopic property and stability (statements in words); type: physicochemical; conditions: not given

SMILES | hygroscopic property | stability | water solubility
CCC(C)C(=O)OC1CCC=C2C=CC(C)C(CCC(CC(O)CC(=O)O)OP(=O)(O)O)C21 (centres unmarked) [CB3A-1.5Ca salt, Sesquicalcium salt of CB3A] | no hygroscopic property | particularly excellent | 
CCC(C)C(=O)OC1CC(C)C=C2C=CC(C)C(CCC(CC(O)CC(=O)O)OP(=O)(O)O)C21 (centres unmarked) [CK3A-1.5Ba salt, Sesquibarium salt of CK3A] | no hygroscopic property | particularly excellent | 
CCC(C)C(=O)OC1CCC=C2C=CC(C)C(CCC(CC(O)CC(=O)O)OP(=O)(O)O)C21 (centres unmarked) [CB3A-1.5Ba salt, Sesquibarium salt of CB3A] | no hygroscopic property | particularly excellent | 
CCC(C)C(=O)OC1CCC=C2C=CC(C)C(CCC(CC(O)CC(=O)O)OP(=O)(O)O)C21 (centres unmarked) [CB3A-2K salt, Dipotassium salt of CB3A] |  | excellent | excellent
CCC(C)C(=O)OC1CCC=C2C=CC(C)C(CCC(CC(O)CC(=O)OC)OP(=O)(O)O)C21 (centres unmarked) [CB3A methyl ester-Ca salt, Calcium salt of CB3A methyl ester] | no hygroscopic property | particularly excellent | 
CCC(C)C(=O)OC1CC(C)C=C2C=CC(C)C(CCC(CC(O)CC(=O)OC)OP(=O)(O)O)C21 (centres unmarked) [CK3A methyl ester-Ca salt, Calcium salt of CK3A methyl ester] | no hygroscopic property | particularly excellent | 
CCC(C)C(=O)OC1CC(C)C=C2C=CC(C)C(CCC(CC(O)CC(=O)O)OP(=O)(O)O)C21 (centres unmarked) [CK3A-1.5Ca salt, Sesquicalcium salt of CK3A] | no hygroscopic property | particularly excellent | 
CCC(C)C(=O)OC1CCC=C2C=CC(C)C(CCC(CC(O)CC(=O)O)OP(=O)(O)O)C21 (centres unmarked) [CB3A-3Na salt, Trisodium salt of CB3A] |  | excellent | excellent
CCC(C)C(=O)OC1CC(C)C=C2C=CC(C)C(CCC(CC(O)CC(=O)OC)OP(=O)(O)O)C21 (centres unmarked) [CK3A methyl ester-2K salt, Dipotassium salt of CK3A methyl ester] |  | excellent | excellent
CCC(C)C(=O)OC1CC(C)C=C2C=CC(C)C(CCC(CC(O)CC(=O)O)OP(=O)(O)O)C21 (centres unmarked) [CK3A-3Na salt, Trisodium salt of CK3A] |  | excellent | excellent
